Measured values as given in ChEMBL document CHEMBL5223145, “A small molecule binding to TGGAA pentanucleotide repeats that cause spinocerebellar ataxia type 31” (Bioorg Med Chem Lett, 2023).
Active and inactive are the calls of the source. No cut-off for these calls is given here.

Key:
[1] = Stabilization of AGG/AGG-motif DNA (unknown origin) assessed as increase in melting temperature
[2] = Stabilization of GGC/GGC -motif DNA (unknown origin) assessed as increase in melting temperature
[3] = Stabilization of GGA/GGA-motif DNA (unknown origin) assessed as increase in melting temperature
[4] = Stabilization of GGA/AAA-motif DNA (unknown origin) assessed as increase in melting temperature at 5 to 10 uM; settings: dose 5-10 µM
[5] = Stabilization of AGA/AAA-motif DNA (unknown origin) assessed as increase in melting temperature at 5 to 10 uM; settings: dose 5-10 µM
[6] = Stabilization of GGA/AGG-motif DNA (unknown origin) assessed as increase in melting temperature at 5 to 10 uM; settings: dose 5-10 µM
[7] = Stabilization of TGGAA DNA (unknown origin) assessed as increase in melting temperature at 2 to 20 uM; settings: dose 2-20 µM
[8] = Binding affinity to GGA/GGA-motif hairpin DNA (unknown origin) assessed as association constant by isothermal titration calorimetry
[9] = Stabilization of AAA/AAA-motif DNA (unknown origin) assessed as increase in melting temperature at 5 to 10 uM; settings: dose 5-10 µM
[10] = Stabilization of GGA/AGA-motif DNA (unknown origin) assessed as increase in melting temperature at 5 to 10 uM; settings: dose 5-10 µM
[11] = Stabilization of AGA/AGA-motif DNA (unknown origin) assessed as increase in melting temperature at 5 to 10 uM; settings: dose 5-10 µM

With `Cc1ccc2ccc(NC(=O)OCCCNCCCOC(=O)Nc3ccc4ccc(C)nc4n3)nc2n1` the Activity [1] was “Active”, the Activity [2] was “inactive” and the Tm [3] was 6 °C.
With `Cc1ccc2ccc(NC(=O)CCNCCC(=O)Nc3ccc4ccc(C)nc4n3)nc2n1` the Activity [1] was “Active”, the Tm [2] was 1.8 °C and the Tm [3] was 7.5 °C.
Compound `Cc1ccc2ccc(NC(=O)CCN(CCC(=O)Nc3ccc4ccc(C)nc4n3)C(=O)CCCN)nc2n1` has a Tm [4] of -1.2 °C, a Tm [5] of 0.3 °C and a Tm [6] of 13.8 °C. For the same compound, the Activity [1] was “inactive”, the Tm [7] was 68.5 °C and the Tm [2] was 4.6 °C. The Ka [8] was 2.5 10^7/M, the Tm [9] was -1.2 °C and the Tm [3] was 13.8 °C. It also gave a Tm [10] of 9.8 °C and a Tm [11] of 11.6 °C.
In the case of `Cc1ccc2ccc(NC(=O)CCN(CCCCN)CCC(=O)Nc3ccc4ccc(C)nc4n3)nc2n1`, the Activity [1] was “Active”, the Activity [2] was “inactive” and the Tm [3] was 6 °C.
